Experimental data from patent publication US20030165570A1, “Pharmaceutical compositions containing micronized bicyclic drugs” (SmithKline Beecham p.l.c., priority 1997, published 2003).
Converted amounts (≈) assume the structure as drawn.

Test: Aqueous solubility
Format: physicochemical
Description: The compounds used in this invention have a very low solubility in water.

- USP solubility classification: virtually insoluble
- aqueous solubility: 8 µg/mL (≈ 22.4 µM)
SMILES: CC(=O)c1ccc2c(c1)[C@H](NC(=O)c1ccc(F)cc1)[C@@H](O)C(C)(C)O2 (relative stereo) [Compound 1, trans-6-acetyl-4S-(4-fluorobenzoylamino)-3,4-dihydro-2,2-dimethyl-2H-1-benzopyran-3R-ol]
